We go through 21 compounds from US20240254118A1, “PRMT5 INHIBITORS AND USES THEREOF” (Gilead Sciences, Inc., priority 2022, published 2024).

For experiment [1], the system named is HCT116 MTAP-deleted cells. Briefly: Cell viability assay (CellTiter-Glo, 7 days), HCT116 MTAP-deleted. The note with it: Homo sapiens, HCT-116, 168 h.
Experimental: Control compounds were analyzed in parallel each time for quality control.
In Brief, on Day −1, a serial dilution of stock compounds in DMSO was performed using BioMek liquid handlers and dispensed using Echo acoustic dispenser into 384 well plates. Both tool compounds and sample compounds were spotted in the same plate for a dose response of PRMT5 inhibitors. Compound plates were stored as frozen until the cells were ready for seeding.
On Day 0, 100 HCT WT or HCT116 MTAP-deleted cells were seeded in compound-containing 384 well plates (50 μl per well) in RPMI 1640 media supplemented with 10% heat inactivated fetal bovine serum, Glutamax and penicillin streptomycin using EL460 liquid dispenser 5 μl cassette (BioTek, part no. 7170011). After equilibrating the plate in room temperature, the cells were incubated for 7 days inside the sealed incubator set at 37 °C with 90% humidity and 5% CO2.
On Day 7, the viability of cells was measured using a CTG assay kit (CellTitre-Glo; Promega cat no. G7573). Shortly, 40 μl per well of luminescent cell viability assay reagent were dispensed using EL460 liquid dispenser 5 μl cassette. CTG luminescence signal was measured using an EnVision plate reader (PerkinElmer) in accordance with manufacturer's instruction. The CC50 values for each compound after 7 days of treatment were calculated using 4 parameter non-linear logistical curve fit.
For experiment [2], the system named is SDMA signal (PRMT5 inhibition) in HCT116 MTAP-deleted cells. Briefly: Symmetric di-methyl arginine image-based high content screen assay (SDMA assay), HCT116 MTAP-deleted. The class given is cell-based. Particulars: for EC50: Homo sapiens, HCT-116, 72 h, read-out: EC50 (SDMA assay); for EC50 selectivity (SDMA assay): taken as HCT116 WT versus MTAP-deleted. In short, it runs like this: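 Read-out: per-cell mean SDMA immunofluorescence (Alexa Fluor 488 secondary), cells segmented by DAPI on a high-content imager. Compound exposure in HCT116 MTAP-deleted cells lasted until fixation on Day 3; overnight 4° C primary anti-SDMA antibody staining.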

[3] abbreviates: SDMA assay, 3 days of treatment, cell line not given, taken as HCT116 MTAP-deleted.

Like-named read-outs stand apart in the source and are kept apart here.

For orientation: CC50 means the concentration at which the toxic effect on the cells reaches its halfway point. Low readings indicate greater toxicity to the cells, high ones lower toxicity to the cells. For orientation: EC50 means the midpoint of the concentration-response curve. In experiment [1], `CN(C(=O)C1(F)CC1)N(Cc1ccc(C(F)(F)F)nn1)C(=O)c1cc2c(cc1F)nc(N)c1cnn(C)c12` [Example 194, 4-amino-7-fluoro-N′-(1-fluorocyclopropanecarbonyl)-N′, 1-dimethyl-N-[[6-(trifluoromethyl)pyridazin-3-yl]methyl]pyrazolo[4,3-c]quinoline-8-carbohydrazide] returned a CC50 of less than 100 nM. The concentration giving a half-maximal response (EC50) in experiment [2] (setting [3]) was less than 1 nM. The “EC50 selectivity (SDMA assay)” value in experiment [2] (SDMA assay) is 68.

With `CN1CCN(N(Cc2ccc(C(F)(F)F)cn2)C(=O)c2cc3c(cc2F)nc(N)c2cnn(C)c23)CC1` [Example 59, 4-amino-7-fluoro-1-methyl-N-(4-methylpiperazin-1-yl)-N-((5-(trifluoromethyl)pyridin-2-yl)methyl)-1H-pyrazolo[4,3-c]quinoline-8-carboxamide], the half-maximal cytotoxic concentration (CC50) in experiment [1] is less than 100 nM. Besides, the EC50 in experiment [2] (setting [3]) is less than 1 nM. For the same compound, in experiment [2] (SDMA assay), the “EC50 selectivity (SDMA assay)” value is recorded as 53.

Regarding `Nc1nc2cc(F)c(C(=O)N3CCCN3c3ccc(C(F)(F)F)cn3)cc2c2cscc12` [Example 132, (4-amino-7-fluoro-thieno[3,4-c]quinolin-8-yl)-[2-[5-(trifluoromethyl)-2-pyridyl]pyrazolidin-1-yl]methanone], in experiment [1], the cytotoxic concentration (CC50) is greater than 1000 nM. Besides, the half-maximal effective concentration (EC50) in experiment [2] (setting [3]) is greater than 5 nM. For the same compound, the “EC50 selectivity (SDMA assay)” value in experiment [2] (SDMA assay) is reported as 3193.

`CC(=O)N([C@@H]1CCOC1)N(Cc1ccc(C(F)(F)F)cn1)C(=O)c1ccc2nc(N)c3cnn(C)c3c2c1` [Example 206, N′-acetyl-4-amino-1-methyl-N′-[(3R)-tetrahydrofuran-3-yl]-N-[[5-(trifluoromethyl)-2-pyridyl]methyl]pyrazolo[4,3-c]quinoline-8-carbohydrazide] showed a 50% cytotoxic concentration (CC50) in experiment [1] of 100 to 1000 nM. Also, the EC50 in experiment [2] (setting [3]) was greater than 5 nM. The “EC50 selectivity (SDMA assay)” value in experiment [2] (SDMA assay) was found to be 220.

The compound `CN1CCN(N(Cc2ccc(C(F)(F)F)cn2)C(=O)c2cc3c(cc2F)nc(N)c2cnn(C)c23)C1=O` [Example 134, 4-amino-7-fluoro-1-methyl-N-(3-methyl-2-oxoimidazolidin-1-yl)-N-((5-(trifluoromethyl)pyridin-2-yl)methyl)-1H-pyrazolo[4,3-c]quinoline-8-carboxamide] displayed a CC50 in experiment [1] of less than 100 nM. Moreover, the EC50 in experiment [2] (setting [3]) lay within 1 to 5 nM. Also, the “EC50 selectivity (SDMA assay)” value in experiment [2] (SDMA assay) was 18.

In experiment [1], `CC(=O)N(C)N(Cc1ccc(C(F)(F)F)cn1)C(=O)c1ccc2nc(N)c3c(cnn3C)c2c1` [Example 152, N′-acetyl-4-amino-N′,3-dimethyl-N-((5-(trifluoromethyl)pyridin-2-yl)methyl)-3H-pyrazolo[3,4-c]quinoline-8-carbohydrazide] displayed a CC50 of 100 to 1000 nM. Further, the EC50 in experiment [2] (setting [3]) was in the range of 1 to 5 nM. Moreover, the “EC50 selectivity (SDMA assay)” value in experiment [2] (SDMA assay) is listed as 128.

`CN(c1ncccn1)N(Cc1ccc(C(F)(F)F)cn1)C(=O)c1ccc2nc(N)c3cnn(C)c3c2c1` [Example 23, 4-amino-N′, 1-dimethyl-N′-(pyrimidin-2-yl)-N-((5-(trifluoromethyl)pyridin-2-yl)methyl)-1H-pyrazolo[4,3-c]quinoline-8-carbohydrazide] showed a CC50 in experiment [1] of less than 100 nM. In experiment [2] (setting [3]), the 50% effective concentration (EC50) is less than 1 nM. The “EC50 selectivity (SDMA assay)” value in experiment [2] (SDMA assay) was 18.

As to `Cn1ncc2c(N)nc3ccc(C(=O)N(Cc4ccc(-c5cnn(C(F)(F)F)c5)cn4)N4CCCCC4=O)cc3c21` [Example 161, 4-amino-1-methyl-N-(2-oxopiperidin-1-yl)-N-((5-(1-(trifluoromethyl)-1H-pyrazol-4-yl)pyridin-2-yl)methyl)-1H-pyrazolo[4,3-c]quinoline-8-carboxamide], in experiment [1], the half-maximal cytotoxic concentration (CC50) is less than 100 nM. In experiment [2] (setting [3]), the EC50 is 1 to 5 nM. Also, in experiment [2] (SDMA assay), the “EC50 selectivity (SDMA assay)” value is 51.

In experiment [1], `CN(C(=O)C1CCC1)N(Cc1ccc(C(F)(F)F)nn1)C(=O)c1cc2c(cc1F)nc(N)c1cnn(C)c12` [Example 162, 4-amino-N′-(cyclobutanecarbonyl)-7-fluoro-N′,1-dimethyl-N-((6-(trifluoromethyl)pyridazin-3-yl)methyl)-1H-pyrazolo[4,3-c]quinoline-8-carbohydrazide] yielded a CC50 of less than 100 nM. Moreover, in experiment [2] (setting [3]), the half-maximal effective concentration (EC50) is less than 1 nM. Further, the “EC50 selectivity (SDMA assay)” value in experiment [2] (SDMA assay) was determined as 127.

Take `Cn1ncc2c(N)nc3ccc(C(=O)N(Cc4ccc(C(F)(F)F)cn4)N4CCCC4=O)cc3c21` [Example 26, 4-amino-1-methyl-N-(2-oxopyrrolidin-1-yl)-N-[[5-(trifluoromethyl)-2-pyridyl]methyl]pyrazolo[4,3-c]quinoline-8-carboxamide]: in experiment [1], the 50% cytotoxic concentration (CC50) is less than 100 nM. In experiment [2] (setting [3]), the EC50 was in the range of 1 to 5 nM. Also, the “EC50 selectivity (SDMA assay)” value in experiment [2] (SDMA assay) is on record as 85.

In experiment [1], `CC(=O)N(c1ccccn1)N(Cc1ccc(C(F)(F)F)cn1)C(=O)c1ccc2nc(N)c3cnn(C)c3c2c1` [Example 147, N′-acetyl-4-amino-1-methyl-N′-(2-pyridyl)-N-[[5-(trifluoromethyl)-2-pyridyl]methyl]pyrazolo[4,3-c]quinoline-8-carbohydrazide] showed a CC50 of less than 100 nM. Besides, the 50% effective concentration (EC50) in experiment [2] (setting [3]) was less than 1 nM. For the same compound, the “EC50 selectivity (SDMA assay)” value in experiment [2] (SDMA assay) worked out at 16.

Regarding `Cn1ncc2c(N)nc3cc(F)c(C(=O)N(Cc4ccc(C(F)(F)F)cn4)N4C[C@@H]5C[C@H]4CO5)cc3c21` [Example 298, 4-amino-N-((1S,4S)-2-oxa-5-azabicyclo[2.2.1]heptan-5-yl)-7-fluoro-1-methyl-N-((5-(trifluoromethyl)pyridin-2-yl)methyl)-1H-pyrazolo[4,3-c]quinoline-8-carboxamide], in experiment [1], the CC50 was less than 100 nM. The EC50 in experiment [2] (setting [3]) is less than 1 nM. For the same compound, the “EC50 selectivity (SDMA assay)” value in experiment [2] (SDMA assay) stood at 23.

As to `CC(=O)N(C)N(Cc1ccc(C#CC(C)(C)S(C)(=O)=O)cc1F)C(=O)c1ccc2nc(N)c3cnn(C)c3c2c1` [Example 176, N′-acetyl-4-amino-N-(2-fluoro-4-(3-methyl-3-(methylsulfonyl)but-1-yn-1-yl)benzyl)-N′,1-dimethyl-1H-pyrazolo[4,3-c]quinoline-8-carbohydrazide], in experiment [1], the CC50 is 100 to 1000 nM. In experiment [2] (setting [3]), the EC50 is 1 to 5 nM. For the same compound, the “EC50 selectivity (SDMA assay)” value in experiment [2] (SDMA assay) is listed as 35.

For `CN(C(=O)C1CC1)N(Cc1ccc(Cl)cn1)C(=O)c1ccc2nc(N)c3cnn(C)c3c2c1` [Example 221, 4-amino-N-((5-chloropyridin-2-yl)methyl)-N′-(cyclopropanecarbonyl)-N′,1-dimethyl-1H-pyrazolo[4,3-c]quinoline-8-carbohydrazide], the CC50 in experiment [1] was less than 100 nM. Moreover, the EC50 in experiment [2] (setting [3]) was 1 to 5 nM. Further, the “EC50 selectivity (SDMA assay)” value in experiment [2] (SDMA assay) is given as 218.

`CCN(C(C)=O)N(Cc1ccc(C(F)(F)F)cn1)C(=O)c1ccc2nc(N)c3cnn(C)c3c2c1` [Example 204, N′-acetyl-4-amino-N′-ethyl-1-methyl-N-[[5-(trifluoromethyl)-2-pyridyl]methyl]pyrazolo[4,3-c]quinoline-8-carbohydrazide] registered a CC50 in experiment [1] of less than 100 nM. For the same compound, in experiment [2] (setting [3]), the EC50 fell in the range of 1 to 5 nM. In experiment [2] (SDMA assay), the “EC50 selectivity (SDMA assay)” value is 150.

`CN(CC1CCC1)N(Cc1ccc(C(F)(F)F)cn1)C(=O)c1ccc2nc(N)c3cnn(C)c3c2c1` [Example 172, 4-amino-N′-(cyclobutylmethyl)-N′,1-dimethyl-N-[[5-(trifluoromethyl)-2-pyridyl]methyl]pyrazolo[4,3-c]quinoline-8-carbohydrazide] had a CC50 in experiment [1] of less than 100 nM. For the same compound, the EC50 in experiment [2] (setting [3]) fell in the range of 1 to 5 nM. Also, the “EC50 selectivity (SDMA assay)” value in experiment [2] (SDMA assay) was found to be 153.

For `CN(C(=O)Oc1ccccc1)N(Cc1ccc(C(F)(F)F)cn1)C(=O)c1ccc2nc(N)c3cnn(C)c3c2c1` [Example 14, Phenyl 2-(4-amino-1-methyl-1H-pyrazolo[4,3-c]quinoline-8-carbonyl)-1-methyl-2-((5-(trifluoromethyl)pyridin-2-yl)methyl)hydrazine-1-carboxylate], the cytotoxic concentration (CC50) in experiment [1] was less than 100 nM. In addition, in experiment [2], the concentration for a half-maximal effect (EC50) was 1 to 5 nM. In addition, in experiment [2] (SDMA assay), the “EC50 selectivity (SDMA assay)” value came out at 148.

Regarding `CN(C1CC1)N(Cc1ccc(C(F)(F)F)cn1)C(=O)c1ccc2nc(N)c3cnn(C)c3c2c1` [Example 75, 4-amino-N′-cyclopropyl-N′,1-dimethyl-N-((5-(trifluoromethyl)pyridin-2-yl)methyl)-1H-pyrazolo[4,3-c]quinoline-8-carbohydrazide], the cytotoxic concentration (CC50) in experiment [1] was less than 100 nM. For the same compound, the EC50 in experiment [2] (setting [3]) was less than 1 nM. For the same compound, the “EC50 selectivity (SDMA assay)” value in experiment [2] (SDMA assay) is 68.

As to `CC(=O)N1CC(C(=O)N(C)N(Cc2ccc(C(F)(F)F)cn2)C(=O)c2ccc3nc(N)c4cnn(C)c4c3c2)C1` [Example 103, N′-(1-acetylazetidine-3-carbonyl)-4-amino-N′,1-dimethyl-N-[[5-(trifluoromethyl)-2-pyridyl]methyl]pyrazolo[4,3-c]quinoline-8-carbohydrazide], the CC50 in experiment [1] is greater than 1000 nM. Also, the EC50 in experiment [2] (setting [3]) is greater than 5 nM. Also, the “EC50 selectivity (SDMA assay)” value in experiment [2] (SDMA assay) is less than 500.

Consider `CC(=O)N(C)N(Cc1ccc(Cl)cc1Cl)C(=O)c1ccc2nc(N)c3cnn(C)c3c2c1` [Example 329, N′-acetyl-4-amino-N-(2,4-dichlorobenzyl)-N′,1-dimethyl-1H-pyrazolo[4,3-c]quinoline-8-carbohydrazide], for which, in experiment [1], the CC50 is less than 100 nM. The concentration for a half-maximal effect (EC50) in experiment [2] (setting [3]) is less than 1 nM. The “EC50 selectivity (SDMA assay)” value in experiment [2] (SDMA assay) came out at 134.

Turning to `CCC(=O)N(C)N(Cc1ccc(C(F)(F)F)cn1)C(=O)c1ccc2nc(N)c3cnn(C)c3c2c1` [Example 41, 4-amino-N′, 1-dimethyl-N′-propanoyl-N-[[5-(trifluoromethyl)-2-pyridyl]methyl]pyrazolo[4,3-c]quinoline-8-carbohydrazide], the half-maximal cytotoxic concentration (CC50) in experiment [1] was less than 100 nM. Also, the EC50 in experiment [2] (setting [3]) was less than 1 nM. The “EC50 selectivity (SDMA assay)” value in experiment [2] (SDMA assay) turned out to be 46.
